Experimental data as given in ChEMBL document CHEMBL1157907, “Synthesis and anti-tumor activities of methyl 2-O-aryl-6-O-aryl'-D-glucopyranosides” (Bioorg Med Chem Lett, 2010).

Assays:
MDA-MB-231 [1] = test: Cytotoxicity against human MDA-MB-231 cells after 48 hrs by MTT assay; format: functional, cell-based; conditions: MDA-MB-231, 48 h
A549 [2] = test: Cytotoxicity against human A549 cells after 48 hrs by MTT assay; format: functional, cell-based; conditions: A549, 48 h
HeLa [3] = test: Cytotoxicity against human HeLa cells after 48 hrs by MTT assay; format: functional, cell-based
A549 [4] = test: Cytotoxicity against human A549 cells up to 50 uM after 48 hrs by MTT assay; format: functional, cell-based
MDA-MB-231 [5] = test: Cytotoxicity against human MDA-MB-231 cells at 20 uM after 48 hrs by MTT assay; format: functional; conditions: MDA-MB-231, 48 h
MDA-MB-435 [6] = test: Cytotoxicity against human MDA-MB-435 cells at 20 uM after 48 hrs by MTT assay; format: functional; conditions: MDA-MB-435, 48 h
MCF7 [7] = test: Cytotoxicity against human MCF7 cells at 20 uM after 48 hrs by MTT assay; format: functional; conditions: MCF7, 48 h
MDA-MB-435 [8] = test: Cytotoxicity against human MDA-MB-435 cells after 48 hrs by MTT assay; format: functional, cell-based; conditions: MDA-MB-435, 48 h
MCF7 [9] = test: Cytotoxicity against human MCF7 cells after 48 hrs by MTT assay; format: functional, cell-based; conditions: MCF7, 48 h
MDA-MB-231 [10] = test: Cytotoxicity against human MDA-MB-231 cells up to 50 uM after 48 hrs by MTT assay; format: functional, cell-based
HeLa [11] = test: Cytotoxicity against human HeLa cells up to 50 uM after 48 hrs by MTT assay; format: functional, cell-based
MDA-MB-231 [12] = test: Drug uptake in human MDA-MB-231 cells at 10 uM; format: ADME, cell-based; conditions: mda-mb-231, 10 µM

| SMILES | EC50 (MDA-MB-231 [1]) [µM] | EC50 (A549 [2]) [µM] | EC50 (HeLa [3]) [µM] | inhibition at 20 µM (MDA-MB-231 [5]) [%] | inhibition at 20 µM (MDA-MB-435 [6]) [%] | inhibition at 20 µM (MCF7 [7]) [%] | other results |
| --- | --- | --- | --- | --- | --- | --- | --- |
| CO[C@@H]1O[C@H](COc2ccccc2C(C)C)[C@@H](O)[C@H](O)[C@H]1Oc1ccc(OC2CCCCC2)cc1 | 44 | 41 | 42 | – | – | – | – |
| CO[C@H]1O[C@H](COc2ccc3c(c2)CCCC3)[C@@H](O)[C@H](O)[C@H]1Oc1cccc(C(C)C)c1 | – | 40 | 33 | – | – | – | EC50 (A549 [4]): Not Active |
| CO[C@H]1O[C@H](COc2ccccc2C(C)C)[C@@H](O)[C@H](O)[C@H]1Oc1ccc(OC2CCCCC2)cc1 | 36 | 33 | 47 | – | – | – | – |
| CO[C@H]1O[C@H](COc2ccc(-c3ccccc3)cc2)[C@@H](O)[C@H](O)[C@H]1Oc1ccccc1C(C)C | 34 | 33 | 29 | – | – | – | – |
| CO[C@H]1O[C@H](COc2ccccc2)[C@@H](O)[C@H](O)[C@H]1Oc1ccc(OC2CCCCC2)cc1 | – | – | – | -11 | -8 | -9 | – |
| CO[C@@H]1O[C@H](COc2ccc(-c3ccccc3)cc2)[C@@H](O)[C@H](O)[C@H]1Oc1cccc(C(C)C)c1 | 35 | 35 | 32 | – | – | – | – |
| CO[C@H]1O[C@H](COc2ccc(OC3CCCCC3)cc2)[C@@H](O)[C@H](O)[C@H]1Oc1ccc(OC2CCCCC2)cc1 | 20 | 18 | 14 | – | – | – | – |
| CO[C@H]1O[C@H](COc2cccc3c2CCCC3)[C@@H](O)[C@H](O)[C@H]1Oc1ccc(OC2CCCCC2)cc1 | – | – | – | -8 | -1 | 3 | – |
| CO[C@@H]1O[C@H](COc2ccc(OC3CCCCC3)cc2)[C@@H](O)[C@H](O)[C@H]1Oc1ccc(OC2CCCCC2)cc1 | 26 | 25 | 14 | – | – | – | – |
| CO[C@H]1O[C@H](COc2ccc(C3CCCCC3)cc2)[C@@H](O)[C@H](O)[C@H]1Oc1ccc2c(c1)CCCC2 | 25 | 17 | 29 | – | – | – | – |
| CO[C@H]1O[C@H](COc2ccc(-c3ccccc3)cc2)[C@@H](O)[C@H](O)[C@H]1Oc1cccc(C(C)C)c1 | 30 | 32 | 35 | – | – | – | – |
| CO[C@H]1O[C@H](COc2ccc3c(c2)CCCC3)[C@@H](O)[C@H](O)[C@H]1Oc1ccc(OC2CCCCC2)cc1 | 20 | – | – | 24 | 16 | 45 | EC50 (MDA-MB-435 [8]): 26 µM; EC50 (MCF7 [9]): 17 µM |
| CO[C@@H]1O[C@H](COc2ccc3c(c2)CCCC3)[C@@H](O)[C@H](O)[C@H]1Oc1ccc2c(c1)-c1ccccc1S2(=O)=O | – | – | – | 14 | -4 | 7 | – |
| CO[C@H]1O[C@H](COc2ccc(C3CCCCC3)cc2)[C@@H](OCc2ccccc2)[C@H](OCc2ccccc2)[C@H]1Oc1ccc(OC2CCCCC2)cc1 | – | – | – | – | – | – | EC50 (A549 [4]): Not Active; EC50 (MDA-MB-231 [10]): Not Active; EC50 (HeLa [11]): Not Active |
| CO[C@H]1O[C@H](COc2cccc3c2CCCC3)[C@@H](O)[C@H](O)[C@H]1Oc1ccc2c(c1)-c1ccccc1S2(=O)=O | – | – | – | -8 | -5 | 4 | – |
| CO[C@H]1O[C@H](COc2ccc(C3CCCCC3)cc2)[C@@H](O)[C@H](O)[C@H]1Oc1cccc2c1CCCC2 | 37 | 28 | 25 | – | – | – | – |
| CO[C@@H]1O[C@H](COc2ccc(OC3CCCCC3)cc2)[C@@H](O)[C@H](O)[C@H]1Oc1ccc(C(C)C)cc1 | 35 | 32 | 26 | – | – | – | – |
| CO[C@H]1O[C@H](COc2ccc3c(c2)CCCC3)[C@@H](O)[C@H](O)[C@H]1Oc1ccc2c(c1)-c1ccccc1S2(=O)=O | – | – | – | 30 | 17 | 2 | – |

| SMILES | EC50 (MDA-MB-231 [1]) [µM] | EC50 (A549 [2]) [µM] | EC50 (HeLa [3]) [µM] | inhibition at 20 µM (MDA-MB-231 [5]) [%] | inhibition at 20 µM (MDA-MB-435 [6]) [%] | inhibition at 20 µM (MCF7 [7]) [%] | other results |
| --- | --- | --- | --- | --- | --- | --- | --- |
| CO[C@H]1O[C@H](COc2ccc(OC3CCCCC3)cc2)[C@@H](O)[C@H](O)[C@H]1Oc1ccc(C(C)C)cc1 | 25 | 27 | 18 | – | – | – | – |
| CO[C@@H]1O[C@H](COc2ccc(-c3ccccc3)cc2)[C@@H](O)[C@H](O)[C@H]1Oc1ccc(OC2CCCCC2)cc1 | 36 | – | – | 64 | 30 | 51 | EC50 (MDA-MB-435 [8]): 26 µM; EC50 (MCF7 [9]): 18 µM |
| COc1ccc(OC[C@H]2O[C@H](OC)[C@H](Oc3ccc(OC4CCCCC4)cc3)[C@@H](O)[C@@H]2O)cc1OC | – | – | – | – | – | – | EC50 (A549 [4]): Not Active; EC50 (MDA-MB-231 [10]): Not Active; EC50 (HeLa [11]): Not Active |
| CO[C@H]1O[C@H](COc2ccccc2)[C@@H](O)[C@H](O)[C@H]1Oc1ccc2c(c1)-c1ccccc1S2(=O)=O | – | – | – | 2 | 4 | 7 | – |
| CO[C@@H]1O[C@H](COc2ccccc2)[C@@H](O)[C@H](O)[C@H]1Oc1ccc(OC2CCCCC2)cc1 | – | – | – | -9 | 14 | -5 | – |
| CO[C@H]1O[C@H](COc2ccc(C3CCCCC3)cc2)[C@@H](OC)[C@H](OC)[C@H]1Oc1ccc(OC2CCCCC2)cc1 | – | – | – | – | – | – | EC50 (A549 [4]): Not Active; EC50 (MDA-MB-231 [10]): Not Active; EC50 (HeLa [11]): Not Active |
| COc1cc(OC)cc(OC[C@H]2O[C@H](OC)[C@H](Oc3ccc(OC4CCCCC4)cc3)[C@@H](O)[C@@H]2O)c1 | – | – | – | – | – | – | EC50 (A549 [4]): Not Active; EC50 (MDA-MB-231 [10]): Not Active; EC50 (HeLa [11]): Not Active |
| CO[C@H]1O[C@H](COc2ccc(-c3ccccc3)cc2)[C@@H](O)[C@H](O)[C@H]1Oc1ccccc1 | – | 36 | 33 | – | – | – | EC50 (A549 [4]): Not Active |
| C=CCO[C@@H]1[C@@H](Oc2ccc(OC3CCCCC3)cc2)[C@@H](OC)O[C@H](COc2ccc(C3CCCCC3)cc2)[C@H]1OCC=C | – | – | – | – | – | – | EC50 (A549 [4]): Not Active; EC50 (MDA-MB-231 [10]): Not Active; EC50 (HeLa [11]): Not Active |
| CO[C@H]1O[C@H](COc2ccc(-c3ccccc3)cc2)[C@@H](O)[C@H](O)[C@H]1Oc1ccc2c(c1)-c1ccccc1S2(=O)=O | – | – | – | 29 | 12 | 15 | – |
| CO[C@H]1O[C@H](COc2ccc(-c3ccccc3)cc2)[C@@H](O)[C@H](O)[C@H]1Oc1ccc(C(C)C)cc1 | 31 | 32 | 19 | – | – | – | – |
| COc1ccc(OC[C@H]2O[C@@H](OC)[C@H](Oc3ccc(OC4CCCCC4)cc3)[C@@H](O)[C@@H]2O)cc1OC | – | – | – | – | – | – | EC50 (A549 [4]): Not Active; EC50 (MDA-MB-231 [10]): Not Active; EC50 (HeLa [11]): Not Active |
| CO[C@@H]1O[C@H](COc2ccc3c(c2)CCCC3)[C@@H](O)[C@H](O)[C@H]1Oc1ccc(OC2CCCCC2)cc1 | – | – | – | 0 | 1 | 14 | – |
| CO[C@H]1O[C@H](COc2cccc(C(C)C)c2)[C@@H](O)[C@H](O)[C@H]1Oc1ccc(OC2CCCCC2)cc1 | 38 | 30 | 28 | – | – | – | – |
| CO[C@@H]1O[C@H](COc2ccccc2)[C@@H](O)[C@H](O)[C@H]1Oc1ccc2c(c1)-c1ccccc1S2(=O)=O | – | – | – | -16 | 0 | 7 | – |
| CO[C@H]1O[C@H](COc2ccc(C3CCCCC3)cc2)[C@@H](O)[C@H](O)[C@H]1Oc1ccc(OC2CCCCC2)cc1 | 14 | 12 | 10 | – | – | – | Drug uptake (MDA-MB-231 [12]): Not Active |
| CO[C@@H]1O[C@H](COc2ccc3c(c2)CCCC3)[C@@H](O)[C@H](O)[C@H]1Oc1cccc(C(C)C)c1 | – | – | – | – | – | – | EC50 (A549 [4]): Not Active; EC50 (MDA-MB-231 [10]): Not Active; EC50 (HeLa [11]): Not Active |
| CO[C@@H]1O[C@H](COc2cccc(C(C)C)c2)[C@@H](O)[C@H](O)[C@H]1Oc1ccc(OC2CCCCC2)cc1 | 40 | 41 | 39 | – | – | – | – |
